# Where “and” joins values, the source holds several entries; their conditions need not be identical. Identical values can stand only once.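 Assay format: 96-well plates, 48-hour exposure. GI50 marks 50% less growth. TGI is the concentration that stops growth completely.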
# How the values were obtained:
# Assay in all cases: inhibition of tumour cell growth, NCI panel, 48 h
# OVCAR-4 ovarian = test system: OVCAR-4 ovarian
# SF-539 CNS = test system: SF-539 CNS
# PC-3 prostate = test system: PC-3 prostate
# HT29 colon = test system: HT29 colon
# UACC-257 melanoma = test system: UACC-257 melanoma
# NCI-H23 lung = test system: NCI-H23 lung
# COLO 205 colon = test system: COLO 205 colon
# UACC-62 melanoma = test system: UACC-62 melanoma
# HCT-15 colon = test system: HCT-15 colon
# NCI-H522 lung = test system: NCI-H522 lung
Compound,TGI (OVCAR-4 ovarian) [µM],TGI (SF-539 CNS),TGI (PC-3 prostate) [µM],TGI (HT29 colon),TGI (UACC-257 melanoma) [µM],TGI (NCI-H23 lung),TGI (COLO 205 colon) [µM],TGI (UACC-62 melanoma) [µM],TGI (HCT-15 colon) [µM],TGI (NCI-H522 lung),GI50 (OVCAR-4 ovarian) [µM],GI50 (SF-539 CNS) [µM],GI50 (HT29 colon) [µM],GI50 (NCI-H23 lung) [µM],GI50 (COLO 205 colon) [µM],GI50 (UACC-62 melanoma) [µM],GI50 (HCT-15 colon) [µM],GI50 (NCI-H522 lung) [µM]
CN(NC(=O)c1ccco1)C1=NCCCCN1,> 100,> 100 µM,> 100,> 100 µM,> 100,> 100 µM,> 100,> 100,> 100,> 100 µM,–,–,–,–,–,–,–,–
N#Cc1c(-c2ccco2)c2c(n(C3OC(CO)C(O)C(O)C3O)c1=S)CCCC2 (centres undefined),> 100,> 100 µM,> 100,> 100 µM,> 100,> 100 µM,> 100,> 100,> 100,> 100 µM,–,–,–,–,–,–,–,–
COc1ccc(-c2nc3ncccn3c2-c2ccc(S(C)=O)cc2)cc1 (centres undefined),> 100,> 100 µM,> 100,> 100 µM,> 100,> 100 µM,> 100,> 100,> 100,–,–,–,–,–,–,–,–,–
O=C(CCN1CCCCC1CCO)Nc1ccc2c(c1)C(=O)c1ccc(NC(=O)CCN3CCCCC3CCO)cc1C2=O (centres undefined),45.4,7.89 µM,–,20.6 µM,20.6,40.3 µM,10.4,13.9,24.6,5.32 µM,–,–,–,–,–,–,–,–
Cc1ccc(-c2cc(-c3ccco3)nc(N)n2)o1,> 100,> 100 µM,–,> 100 µM,–,> 100 µM,> 100,> 100,> 100,> 100 µM,–,–,–,–,–,–,–,–
CCOC(=O)c1cc2cc(Cc3ccc4[nH]c(C(=O)OCC)cc4c3)ccc2[nH]1,21.4,36.3 µM,> 100,> 100 µM,> 100,37.9 µM,> 100,36.3,> 100,–,–,–,–,–,–,–,–,–
COC(=O)c1ccc(CN2CCc3c([nH]c4ccccc34)C2CO)o1 (centres undefined),> 10,–,> 10,> 10 µM,> 10,> 10 µM,> 10,> 10,> 10,> 10 µM,–,–,–,–,–,–,–,–
CCOC(=O)CC(C)C(C#N)(OP1(=O)OC(c2ccccc2)C(C)N1C)c1ccccc1 (centres undefined),–,> 100 µM,> 100,> 100 µM,> 100,> 100 µM,36.6,> 100,> 100,> 100 µM,–,–,–,–,–,–,–,–
c1cc(-c2cscc2-c2ccsc2)cs1,> 100,59.5 µM,> 100,> 100 µM,> 100,> 100 µM,> 100,> 100,> 100,–,–,–,–,–,–,–,–,–
C=CCN1C(=O)CS/C1=N\NC(=O)c1c(C)nc2sccn12,–,> 100 µM,–,> 100 µM,> 100,> 100 µM,> 100,> 100,> 100,> 100 µM,–,–,–,–,–,–,–,–
COc1ccc(-n2sc3ncc(-c4ccccc4)cc3c2=O)cc1,45.7,–,> 100,–,> 100,53.3 µM,> 100,> 100,> 100,–,–,–,–,–,–,–,–,–
CN1CC(c2ccccc2)=Cc2c1ccc(N)c2N=N,> 100,> 100 µM,> 100,> 100 µM,> 100,> 100 µM,–,> 100,> 100,> 100 µM,–,–,–,–,–,–,–,–
O=C(NCCNCCO)N/N=C/c1cccc([N+](=O)[O-])c1,> 100,> 100 µM,–,> 100 µM,> 100,> 100 µM,> 100,> 100,> 100,> 100 µM,–,–,–,–,–,–,–,–
COc1c2nc(CCl)n(C)c(=O)c2c(OC)c2c(=O)n(C)c(CCl)nc12,> 100,13.1 µM,2.68,2.87 µM,5.24,3.4 µM,2.71,–,2.86,2.8 µM,–,–,–,–,–,–,–,–
COc1ccc(C[C@@H]2CN(C(=O)c3ccccc3)[C@H](Cc3ccc(O)cc3)CN2C(=O)c2ccccc2)cc1Br,> 100,> 100 µM,> 100,> 100 µM,> 100,> 100 µM,> 100,–,> 100,–,–,–,–,–,–,–,–,–
Cc1c(C)c(C)c(-n2c(=O)n(C)c(=O)n2C(C)(C)C)c(C)c1C,> 100,> 100 µM,> 100,–,> 100,> 100 µM,> 100,> 100,> 100,–,–,–,–,–,–,–,–,–
C=C1CC2CC[C@@]34C[C@@H]5O[C@@H]6C(O[C@H]7CC[C@H](CC(=O)OC8[C@@H](C)C9OC%10C[C@]%11(C[C@@H]%12O[C@@]%13(C[C@@H](C)[C@@H]%12O%11)C[C@H](C)[C@@H]%11OC%12CC(C(O)CO)OC%12C[C@@H]%11O%13)OC%10CC9O[C@H]8C[C@H]8O[C@@H](CC[C@@H]1O2)C[C@@H](C)C8=C)O[C@@H]7[C@@H]6O3)C5O4 (some centres undefined),> 1.48,0.00562 µM and 0.00215 µM,–,0.00784 µM and 0.00321 µM,–,0.0068 µM and 0.00198 µM,–,> 1.48,–,0.000594 µM and < 0.000148 µM,> 1.48,< 0.000148,< 0.000148,< 0.000148,< 0.000148,< 0.000148,0.000233,< 0.000148
N/C(CC/C(N)=N\O)=N\O,> 100,–,> 100,> 100 µM,> 100,> 100 µM,–,> 100,> 100,> 100 µM,–,–,–,–,–,–,–,–
COC(=O)OC[C@H]1O[C@@H](n2cc(C)c(=O)[nH]c2=O)CC1OC(=O)OC (some centres undefined),> 100,> 100 µM,> 100,> 100 µM,–,> 100 µM,> 100,> 100,> 100,> 100 µM,–,–,–,–,–,–,–,–
Oc1ccc(-c2cc(-c3c(O)cc(O)cc3O)on2)cc1,> 100,> 100 µM,> 100,> 100 µM,> 100,> 100 µM,–,> 100,> 100,> 100 µM,–,–,–,–,–,–,–,–
O=S(=O)(O)c1cc(Cl)c(O)c2ncc(Cl)cc12,> 100,> 100 µM,> 100,> 100 µM,> 100,> 100 µM,> 100,> 100,> 100,–,–,–,–,–,–,–,–,–

# Reference: PubChem BioAssay (NCI)
